Measurements: patent US20230111310A1, “CARBOXYLIC ACID DERIVATIVE-SUBSTITUTED IMINO ARYL COMPOUND, PREPARATION METHOD THEREFOR, HERBICIDAL COMPOSITION AND USE THEREOF” (Qingdao Kingagroot Chemical Compound Co., Ltd., priority 2020, published 2023)

Experiments:
Assay in all cases: Weeding effect in post-emergence stage
Format in all cases: in vivo
Echinochloa crusgalli = conditions: Dose 15 g/ha; for Weeding effect in post-emergence stage, Echinochloa crusgalli: level of fresh weight growth control rate; for Weeding effect in post-emergence stage, Echinochloa crusgalli (level): fresh weight control rate level
How it was run: (§1)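 Pot-grown weeds were sprayed at the 2-3 leaf stage, 2 weeks after sowing, with compound in acetone plus Tween 80 and 1.5 liter/ha methyl oleate emulsifiable concentrate, diluted in water. Doses were 500, 250, 125, 60, 30, 15, 7.5 g/ha. Growth control was scored after 3 weeks in greenhouse; mean of three replicates.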

Alopecurus japonicus = conditions: Dose 15 g/ha; for Weeding effect in post-emergence stage, Alopecurus japonicus: level of fresh weight growth control rate; for Weeding effect in post-emergence stage, Alopecurus japonicus (level): fresh weight control rate level
How it was run: as §1

Abutilon theophrasti = conditions: Dose 15 g/ha; for Weeding effect in post-emergence stage, Abutilon theophrasti: level of fresh weight growth control rate; for Weeding effect in post-emergence stage, Abutilon theophrasti (level): fresh weight control rate level
How it was run: as §1

Setaria viridis = conditions: Dose 15 g/ha; for Weeding effect in post-emergence stage, Setaria viridis: level of fresh weight growth control rate; for Weeding effect in post-emergence stage, Setaria viridis (level): fresh weight control rate level
How it was run: as §1

Eleusine indica = conditions: Dose 15 g/ha; for Weeding effect in post-emergence stage, Eleusine indica: level of fresh weight growth control rate; for Weeding effect in post-emergence stage, Eleusine indica (level): fresh weight control rate level
How it was run: as §1

Digitaria sanguinalis = conditions: Dose 15 g/ha; for Weeding effect in post-emergence stage, Digitaria sanguinalis: level of fresh weight growth control rate; for Weeding effect in post-emergence stage, Digitaria sanguinalis (level): fresh weight control rate level
How it was run: as §1

SMILES	Weeding effect in post-emergence stage, Echinochloa crusgalli (Echinochloa crusgalli)	Weeding effect in post-emergence stage, Alopecurus japonicus (Alopecurus japonicus)	Weeding effect in post-emergence stage, Abutilon theophrasti (Abutilon theophrasti)	Weeding effect in post-emergence stage, Setaria viridis (Setaria viridis)	Weeding effect in post-emergence stage, Eleusine indica (Eleusine indica)	Weeding effect in post-emergence stage, Digitaria sanguinalis (Digitaria sanguinalis)	Weeding effect in post-emergence stage, Echinochloa crusgalli (level) (Echinochloa crusgalli)	Weeding effect in post-emergence stage, Alopecurus japonicus (level) (Alopecurus japonicus)	Weeding effect in post-emergence stage, Abutilon theophrasti (level) (Abutilon theophrasti)	Weeding effect in post-emergence stage, Setaria viridis (level) (Setaria viridis)	Weeding effect in post-emergence stage, Eleusine indica (level) (Eleusine indica)	Weeding effect in post-emergence stage, Digitaria sanguinalis (level) (Digitaria sanguinalis)
C[C@@H](O/N=C/c1cc(-n2c(=O)n(C)c(=S)n(C)c2=O)c(F)cc1Cl)C(=O)OCC1CC1 [9(R)]	5 (Level 5: growth control rate is above 85%)	5 (Level 5: growth control rate is above 85%)	5 (Level 5: growth control rate is above 85%)	5 (Level 5: growth control rate is above 85%)	5 (Level 5: growth control rate is above 85%)	5 (Level 5: growth control rate is above 85%)						
COC(=O)CCCO/N=C/c1cc(-n2c(=O)cc(C(F)(F)F)n(C)c2=O)c(F)cc1Cl [Compound 485]							5 (Level 5: growth control rate is above 85%)	5 (Level 5: growth control rate is above 85%)	5 (Level 5: growth control rate is above 85%)	5 (Level 5: growth control rate is above 85%)	5 (Level 5: growth control rate is above 85%)	5 (Level 5: growth control rate is above 85%)
CCOC(=O)C(C)O/N=C/c1cc(-n2c(=O)cc(C(F)(F)F)n(C)c2=O)c(F)cc1Cl (racemic) [Compound 196]	5 (Level 5: growth control rate is above 85%)	5 (Level 5: growth control rate is above 85%)	5 (Level 5: growth control rate is above 85%)	5 (Level 5: growth control rate is above 85%)	5 (Level 5: growth control rate is above 85%)	5 (Level 5: growth control rate is above 85%)						
CSCCOC(=O)[C@@H](C)O/N=C/c1cc(-n2c(=O)cc(C(F)(F)F)n(C)c2=O)c(F)cc1Cl [234(R)]	5 (Level 5: growth control rate is above 85%)	5 (Level 5: growth control rate is above 85%)	5 (Level 5: growth control rate is above 85%)	5 (Level 5: growth control rate is above 85%)	5 (Level 5: growth control rate is above 85%)	5 (Level 5: growth control rate is above 85%)						
COC(=O)C(C)O/N=C/c1cc(-n2c(=S)cc(C(F)(F)F)n(C)c2=O)c(F)cc1Cl (racemic) [Compound 349]	5 (Level 5: growth control rate is above 85%)	5 (Level 5: growth control rate is above 85%)	5 (Level 5: growth control rate is above 85%)	5 (Level 5: growth control rate is above 85%)	5 (Level 5: growth control rate is above 85%)	5 (Level 5: growth control rate is above 85%)						
COC(=O)C(OC)(OC)O/N=C/c1cc(-n2c(=O)cc(C(F)(F)F)n(C)c2=O)c(F)cc1Cl [Compound 494]							5 (Level 5: growth control rate is above 85%)	5 (Level 5: growth control rate is above 85%)	5 (Level 5: growth control rate is above 85%)	5 (Level 5: growth control rate is above 85%)	5 (Level 5: growth control rate is above 85%)	5 (Level 5: growth control rate is above 85%)
CC(O/N=C/c1cc(-n2c(=O)cc(C(F)(F)F)n(C)c2=O)c(F)cc1Cl)C(=O)OC1CCCC1 (racemic) [Compound 214]	5 (Level 5: growth control rate is above 85%)	5 (Level 5: growth control rate is above 85%)	5 (Level 5: growth control rate is above 85%)	5 (Level 5: growth control rate is above 85%)	5 (Level 5: growth control rate is above 85%)	5 (Level 5: growth control rate is above 85%)						
C#CCOC(=O)C(C)O/N=C/c1cc(-n2c(=O)cc(C(F)(F)F)n(C)c2=O)c(F)cc1Cl (racemic) [Compound 212]	5 (Level 5: growth control rate is above 85%)	5 (Level 5: growth control rate is above 85%)	5 (Level 5: growth control rate is above 85%)	5 (Level 5: growth control rate is above 85%)	5 (Level 5: growth control rate is above 85%)	5 (Level 5: growth control rate is above 85%)						
CCSC(=O)[C@@H](C)O/N=C/c1cc(-n2c(=O)n(C)c(=S)n(C)c2=O)c(F)cc1Cl [168(R)]	5 (Level 5: growth control rate is above 85%)	5 (Level 5: growth control rate is above 85%)	5 (Level 5: growth control rate is above 85%)	5 (Level 5: growth control rate is above 85%)	5 (Level 5: growth control rate is above 85%)	5 (Level 5: growth control rate is above 85%)						
C/C(=N\OC(=O)C(C)O/N=C/c1cc(-n2c(=O)cc(C(F)(F)F)n(C)c2=O)c(F)cc1Cl)C(C)C (stereo not drawn) [Compound 250]	5 (Level 5: growth control rate is above 85%)	5 (Level 5: growth control rate is above 85%)	5 (Level 5: growth control rate is above 85%)	5 (Level 5: growth control rate is above 85%)	5 (Level 5: growth control rate is above 85%)	5 (Level 5: growth control rate is above 85%)						
CC(O/N=C/c1cc(-n2c(=O)n(C)c(=S)n(C)c2=O)c(F)cc1Cl)C(=O)OCCF (racemic) [Compound 10]	5 (Level 5: growth control rate is above 85%)	5 (Level 5: growth control rate is above 85%)	5 (Level 5: growth control rate is above 85%)	5 (Level 5: growth control rate is above 85%)	5 (Level 5: growth control rate is above 85%)	5 (Level 5: growth control rate is above 85%)						
CC(O/N=C/c1cc(-n2c(=O)cc(C(F)(F)F)n(C)c2=O)c(F)cc1Cl)C(=O)Oc1ccccc1 (stereo not drawn) [Compound 262]	5 (Level 5: growth control rate is above 85%)	5 (Level 5: growth control rate is above 85%)	5 (Level 5: growth control rate is above 85%)	5 (Level 5: growth control rate is above 85%)	5 (Level 5: growth control rate is above 85%)	5 (Level 5: growth control rate is above 85%)						
COC(=O)C(C)O/N=C/c1cc(N2C(=O)CC(N)(C(F)(F)F)N(C)C2=O)c(F)cc1Cl (stereo not drawn) [Compound 432]							5 (Level 5: growth control rate is above 85%)	5 (Level 5: growth control rate is above 85%)	5 (Level 5: growth control rate is above 85%)	5 (Level 5: growth control rate is above 85%)	5 (Level 5: growth control rate is above 85%)	5 (Level 5: growth control rate is above 85%)
